Data taken from US20210395248A1, “INHIBITORS OF HUMAN IMMUNODEFICIENCY VIRUS REPLICATION” (ViiV HEALTHCARE UK (NO.5) LIMITED, priority 2018, published 2021).

Experiments:
[1] = Compound cytotoxicity, XTT-based colorimetric assay; assay type: cell-based; settings: human; uninfected MT2 cells, day 4, XTT; read-out: CC50
Protocol: Compound cytotoxicity and the corresponding CC50 values were determined using the same protocol as described in the antiviral assay except that uninfected cells were used. Cytotoxicity was assessed on day 4 in uninfected MT2 cells by using a XTT (2,3-bis [2-Methoxy-4-nitro-5-sulfophenyl]-2H-tetrazolium-5-carboxyanilide inner salt)-based colorimetric assay (Sigma-Aldrich, St Louis, Mo.).

[2] = system: recombinant NL4-3 virus (Renilla luciferase reporter) in MT-2 cells; assay: HIV cell culture assay (antiviral activity, luciferase readout in infected MT-2 cells); assay type: cell-based; settings: NL43
Protocol: HIV cell culture assay—MT-2 cells, 293T cells and the proviral DNA clone of NL4-3 virus were obtained from the NIH AIDS Research and Reference Reagent Program. MT-2 cells were propagated in RPMI 1640 media supplemented with 10% heat inactivated fetal bovine serum (FBS), […]. The 293T cells were propagated in DMEM media supplemented with 10% heat inactivated FBS, […]. A recombinant NL4-3 proviral clone, in which a section of the nef gene was replaced with the Renilla luciferase gene, was used to make the reference virus used in these studies. The recombinant virus was prepared through transfection of the recombinant NL4-3 proviral clone into 293T cells using Transit-293 Transfection Reagent from Mirus Bio LLC (Madison, Wis.). Supernatent was harvested after 2-3 days and the amount of virus present was titered in MT-2 cells using luciferase enzyme activity as a marker by measuring luciferase enzyme activity. Luciferase was quantitated using the EnduRen Live Cell Substrate from Promega (Madison, Wis.). Antiviral activities of compounds toward the recombinant virus were quantified by measuring luciferase activity in MT-2 cells infected for 4-5 days with the recombinant virus in the presence of serial dilutions of the compound.
The 50% effective concentration (EC50) was calculated by using the exponential form of the median effect equation where (Fa)=1/[1+(EC50/drug conc.)m] (Johnson V A, Byington RT. Infectivity Assay. In Techniques in HIV Research, ed. Aldovini A, Walker B D. 71-76. New York: Stockton Press. 1990). The 50% inhibitory concentration (EC50) was calculated by using the exponential form of the median effect equation where percent inhibition=1/[1+(EC50/drug concentration)m], where m is a parameter that reflects the slope of the concentration-response curve.

| SMILES | CC50 at 4 days [1] [nM] | EC50 [2] [nM] |
| --- | --- | --- |
| Cn1nc(NS(C)(=O)=O)c2c(Cl)ccc(-n3c([C@H](Cc4cc(F)cc(F)c4)NC(=O)Cn4nc(C(F)F)c5c4C(F)(F)[C@@H]4C[C@H]54)nc4nc(NCCC(F)(F)F)ccc4c3=O)c21 (atropisomer, axis not shown; (P)) [Example 32, N—((S)-1-((3P)-3-(4-chloro-1-methyl-3-(methylsulfonamido)-1H-indazol-7-yl)-4-oxo-7-((3,3,3-trifluoropropyl)amino)-3,4-dihydropyrido[2,3-d]pyrimidin-2-yl)-2-(3,5-difluorophenyl)ethyl)-2-((3bS,4aR)-3-(difluoromethyl)-5,5-difluoro-3b,4,4a,5-tetrahydro-1H-cyclopropa[3,4]cyclopenta[1,2-c]pyrazol-1-yl)acetamide] | > 100 | 0.042 |
| Cn1nc(NS(C)(=O)=O)c2c(Cl)ccc(-n3c([C@H](Cc4cc(F)cc(F)c4)NC(=O)Cn4nc(C(F)F)c5c4C(F)(F)[C@@H]4C[C@H]54)nc4nc(NCCC(F)F)ccc4c3=O)c21 (atropisomer, axis not shown; (P)) [Example 34, N—((S)-1-((3P)-3-(4-chloro-1-methyl-3-(methylsulfonamido)-1H-indazol-7-yl)-7-((3,3-difluoropropyl)amino)-4-oxo-3,4-dihydropyrido[2,3-d]pyrimidin-2-yl)-2-(3,5-difluorophenyl)ethyl)-2-((3bS,4aR)-3-(difluoromethyl)-5,5-difluoro-3b,4,4a,5-tetrahydro-1H-cyclopropa[3,4]cyclopenta[1,2-c]pyrazol-1-yl)acetamide] | > 100 | 0.055 |
| Cn1nc(NS(C)(=O)=O)c2c(Cl)ccc(-n3c([C@H](Cc4cc(F)cc(F)c4)NC(=O)Cn4nc(C(F)F)c5c4C(F)(F)[C@@H]4C[C@H]54)nc4nc(NCCCF)ccc4c3=O)c21 (atropisomer, axis not shown; (P)) [Example 35, N—((S)-1-((3P)-3-(4-chloro-1-methyl-3-(methylsulfonamido)-1H-indazol-7-yl)-7-((3-fluoropropyl)amino)-4-oxo-3,4-dihydropyrido[2,3-d]pyrimidin-2-yl)-2-(3,5-difluorophenyl)ethyl)-2-((3bS,4aR)-3-(difluoromethyl)-5,5-difluoro-3b,4,4a,5-tetrahydro-1H-cyclopropa[3,4]cyclopenta[1,2-c]pyrazol-1-yl)acetamide] | > 100 | 0.11 |
| C[C@@H]1CN(c2ccc3c(=O)n(-c4ccc(Cl)c5c(NS(C)(=O)=O)nn(C)c45)c([C@H](Cc4cc(F)cc(F)c4)NC(=O)Cn4nc(C(F)F)c5c4C(F)(F)[C@@H]4C[C@H]54)nc3n2)C[C@H](C)O1 (atropisomer, axis not shown; (aR)) [Example 1, N—((S)-1-(3-(4-chloro-1-methyl-3-(methylsulfonamido)-1H-indazol-7-yl)-7-((2S,6R)-2,6-dimethylmorpholino)-4-oxo-3,4-dihydropyrido[2,3-d]pyrimidin-2-yl)-2-(3,5-difluorophenyl)ethyl)-2-((3bS,4aR)-3-(difluoromethyl)-5,5-difluoro-3b,4,4a,5-tetrahydro-1H-cyclopropa[3,4]cyclopenta[1,2-c]pyrazol-1-yl)acetamide] | > 500 | 0.041 |
| C[C@@H]1CN(c2ccc3c(=O)n(-c4ccc(Cl)c5c(NS(C)(=O)=O)nn(C)c45)c([C@H](Cc4cc(F)cc(F)c4)NC(=O)Cn4nc(C(F)(F)F)c5c4C(F)(F)[C@@H]4C[C@H]54)nc3n2)C[C@H](C)O1 (atropisomer, axis not shown; (aR)) [Example 2, N—((S)-1-(3-(4-chloro-1-methyl-3-(methylsulfonamido)-1H-indazol-7-yl)-7-((2S,6R)-2,6-dimethylmorpholino)-4-oxo-3,4-dihydropyrido[2,3-d]pyrimidin-2-yl)-2-(3,5-difluorophenyl)ethyl)-2-((3bS,4aR)-5,5-difluoro-3-(trifluoromethyl)-3b,4,4a,5-tetrahydro-1H-cyclopropa[3,4]cyclopenta[1,2-c]pyrazol-1-yl)acetamide] | > 500 | 0.036 |
| C[C@@H]1CN(c2ccc3c(=O)n(-c4ccc(Cl)c5c(NS(C)(=O)=O)nn(CC(F)F)c45)c([C@H](Cc4cc(F)cc(F)c4)NC(=O)Cn4nc(C(F)F)c5c4C(F)(F)[C@@H]4C[C@H]54)nc3n2)C[C@H](C)O1 (atropisomer, axis not shown; (aR)) [Example 3, N—((S)-1-(3-(4-chloro-1-(2,2-difluoroethyl)-3-(methylsulfonamido)-1H-indazol-7-yl)-7-((2S,6R)-2,6-dimethylmorpholino)-4-oxo-3,4-dihydropyrido[2,3-d]pyrimidin-2-yl)-2-(3,5-difluorophenyl)ethyl)-2-((3bS,4aR)-3-(difluoromethyl)-5,5-difluoro-3b,4,4a,5-tetrahydro-1H-cyclopropa[3,4]cyclopenta[1,2-c]pyrazol-1-yl)acetamide] | > 500 | 0.032 |
| C[C@@H]1CN(c2ccc3c(=O)n(-c4ccc(Cl)c5c(NS(C)(=O)=O)nn(CC(F)F)c45)c([C@H](Cc4cc(F)cc(F)c4)NC(=O)Cn4nc(C(F)(F)F)c5c4C(F)(F)[C@@H]4C[C@H]54)nc3n2)C[C@H](C)O1 (atropisomer, axis not shown; (aR)) [Example 4, N—((S)-1-(3-(4-chloro-1-(2,2-difluoroethyl)-3-(methylsulfonamido)-1H-indazol-7-yl)-7-((2S,6R)-2,6-dimethylmorpholino)-4-oxo-3,4-dihydropyrido[2,3-d]pyrimidin-2-yl)-2-(3,5-difluorophenyl)ethyl)-2-((3bS,4aR)-5,5-difluoro-3-(trifluoromethyl)-3b,4,4a,5-tetrahydro-1H-cyclopropa[3,4]cyclopenta[1,2-c]pyrazol-1-yl)acetamide] | > 500 | 0.031 |
| C[C@@H]1CN(c2ccc3c(=O)n(-c4ccc(Cl)c5c(NS(=O)(=O)C6CC6)nn(CC(F)F)c45)c([C@H](Cc4cc(F)cc(F)c4)NC(=O)Cn4nc(C(F)F)c5c4C(F)(F)[C@@H]4C[C@H]54)nc3n2)C[C@H](C)O1 (atropisomer, axis not shown; (aR)) [Example 5, N—((S)-1-(3-(4-chloro-3-(cyclopropanesulfonamido)-1-(2,2-difluoroethyl)-1H-indazol-7-yl)-7-((2S,6R)-2,6-dimethylmorpholino)-4-oxo-3,4-dihydropyrido[2,3-d]pyrimidin-2-yl)-2-(3,5-difluorophenyl)ethyl)-2-((3bS,4aR)-3-(difluoromethyl)-5,5-difluoro-3b,4,4a,5-tetrahydro-1H-cyclopropa[3,4]cyclopenta[1,2-c]pyrazol-1-yl)acetamide] | > 500 | 0.03 |
| C[C@@H]1CN(c2ccc3c(=O)n(-c4ccc(Cl)c5c(NS(=O)(=O)C6CC6)nn(CC(F)F)c45)c([C@H](Cc4cc(F)cc(F)c4)NC(=O)Cn4nc(C(F)(F)F)c5c4C(F)(F)[C@@H]4C[C@H]54)nc3n2)C[C@H](C)O1 (atropisomer, axis not shown; (aR)) [Example 6, N—((S)-1-(3-(4-chloro-3-(cyclopropanesulfonamido)-1-(2,2-difluoroethyl)-1H-indazol-7-yl)-7-((2S,6R)-2,6-dimethylmorpholino)-4-oxo-3,4-dihydropyrido[2,3-d]pyrimidin-2-yl)-2-(3,5-difluorophenyl)ethyl)-2-((3bS,4aR)-5,5-difluoro-3-(trifluoromethyl)-3b,4,4a,5-tetrahydro-1H-cyclopropa[3,4]cyclopenta[1,2-c]pyrazol-1-yl)acetamide] | > 500 | 0.04 |
| C[C@@H]1CN(c2ccc3c(=O)n(-c4ccc(Cl)c5c(NS(C)(=O)=O)nn(CC(F)(F)F)c45)c([C@H](Cc4cc(F)cc(F)c4)NC(=O)Cn4nc(C(F)F)c5c4C(F)(F)[C@@H]4C[C@H]54)nc3n2)C[C@H](C)O1 (atropisomer, axis not shown; (aR)) [Example 7, N—((S)-1-(3-(4-chloro-3-(methylsulfonamido)-1-(2,2,2-trifluoroethyl)-1H-indazol-7-yl)-7-((2S,6R)-2,6-dimethylmorpholino)-4-oxo-3,4-dihydropyrido[2,3-d]pyrimidin-2-yl)-2-(3,5-difluorophenyl)ethyl)-2-((3bS,4aR)-3-(difluoromethyl)-5,5-difluoro-3b,4,4a,5-tetrahydro-1H-cyclopropa[3,4]cyclopenta[1,2-c]pyrazol-1-yl)acetamide] | > 500 | 0.028 |
